Results: ChEMBL document CHEMBL5154936, “Scaffold Hopping Strategy to Identify Prostanoid EP4 Receptor Antagonists for Cancer Immunotherapy” (J Med Chem, 2022)
Values belong to the molecule of their own block, whether it stands above or below them.

What was measured:
[1] = target: Prostaglandin E2 receptor EP4 subtype (Mus musculus, UniProt P32240); experiment: Antagonist activity at mouse EP4 receptor transfected in CHO/Galpha16 cells preincubated for 15 mins followed by PGE2 addition by calcium flux assay; assay type: functional, cell-based
[2] = target: Prostaglandin E2 receptor EP4 subtype (Homo sapiens, UniProt P35408); experiment: Antagonist activity at human EP4 receptor transfected in CHO/Galpha16 cells preincubated for 15 mins followed by PGE2 addition by calcium flux assay; assay type: functional, cell-based
[3] = target: T1, Prostaglandin E2 receptor EP3 subtype (Homo sapiens, UniProt P43115); experiment: Antagonist activity at human EP3 receptor transfected in CHO/Galpha16 cells preincubated for 15 mins followed by PGE2 addition by calcium flux assay; assay type: functional, cell-based
T1 sequence (P43115 whole entry): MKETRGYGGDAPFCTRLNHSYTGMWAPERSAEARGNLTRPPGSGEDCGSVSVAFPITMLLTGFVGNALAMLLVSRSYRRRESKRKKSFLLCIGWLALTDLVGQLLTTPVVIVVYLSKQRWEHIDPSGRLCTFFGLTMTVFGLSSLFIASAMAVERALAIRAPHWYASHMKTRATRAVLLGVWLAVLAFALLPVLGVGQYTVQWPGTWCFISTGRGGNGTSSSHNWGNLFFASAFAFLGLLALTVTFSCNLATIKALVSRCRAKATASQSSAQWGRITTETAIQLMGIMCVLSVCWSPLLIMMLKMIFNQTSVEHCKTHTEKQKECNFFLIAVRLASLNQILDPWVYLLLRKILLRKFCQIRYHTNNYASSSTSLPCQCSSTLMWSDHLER

[4] = target: Prostaglandin E2 receptor EP2 subtype (Homo sapiens, UniProt P43116); experiment: Antagonist activity at human EP2 receptor transfected in CHO/Galpha16 cells preincubated for 15 mins followed by PGE2 addition by calcium flux assay; assay type: functional, cell-based
[5] = target: T2, Prostaglandin E2 receptor EP1 subtype (Homo sapiens, UniProt P34995); experiment: Antagonist activity at human EP1 receptor transfected in CHO/Galpha16 cells preincubated for 15 mins followed by PGE2 addition by calcium flux assay; assay type: functional, cell-based
T2 sequence (P34995 whole entry): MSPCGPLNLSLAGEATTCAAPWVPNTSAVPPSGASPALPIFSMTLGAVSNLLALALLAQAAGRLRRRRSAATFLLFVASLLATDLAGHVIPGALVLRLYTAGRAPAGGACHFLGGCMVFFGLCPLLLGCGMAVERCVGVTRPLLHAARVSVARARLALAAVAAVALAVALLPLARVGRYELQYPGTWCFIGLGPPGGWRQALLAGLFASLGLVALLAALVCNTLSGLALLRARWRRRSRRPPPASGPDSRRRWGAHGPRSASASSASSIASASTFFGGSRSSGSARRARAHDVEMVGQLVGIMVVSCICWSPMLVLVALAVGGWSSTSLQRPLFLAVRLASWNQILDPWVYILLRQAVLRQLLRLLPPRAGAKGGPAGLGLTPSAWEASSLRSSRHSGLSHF

[6] = Metabolic stability in human liver microsomes assessed as intrinsic clearance; assay type: ADME, Microsome; conditions: read-out: CLH
[7] = Metabolic stability in human liver microsomes assessed as half life; assay type: ADME, Microsome
[8] = Metabolic stability in human liver microsomes assessed as parent compound remaining at 10 uM measured after 60 mins; assay type: ADME, Microsome; conditions: read-out: Stability
[9] = target: CYP2D6 (Homo sapiens, UniProt P10635); experiment: Inhibition of CYP2D6 (unknown origin) at 20 uM; assay type: ADME
[10] = Metabolic stability in mouse liver microsomes assessed as parent compound remaining at 10 uM measured after 60 mins; assay type: ADME, Microsome; conditions: read-out: Stability
[11] = target: T3, CYP2B6 (Homo sapiens, UniProt P20813); experiment: Inhibition of CYP2B6 (unknown origin) at 20 uM; assay type: ADME
T3 sequence (P20813 whole entry): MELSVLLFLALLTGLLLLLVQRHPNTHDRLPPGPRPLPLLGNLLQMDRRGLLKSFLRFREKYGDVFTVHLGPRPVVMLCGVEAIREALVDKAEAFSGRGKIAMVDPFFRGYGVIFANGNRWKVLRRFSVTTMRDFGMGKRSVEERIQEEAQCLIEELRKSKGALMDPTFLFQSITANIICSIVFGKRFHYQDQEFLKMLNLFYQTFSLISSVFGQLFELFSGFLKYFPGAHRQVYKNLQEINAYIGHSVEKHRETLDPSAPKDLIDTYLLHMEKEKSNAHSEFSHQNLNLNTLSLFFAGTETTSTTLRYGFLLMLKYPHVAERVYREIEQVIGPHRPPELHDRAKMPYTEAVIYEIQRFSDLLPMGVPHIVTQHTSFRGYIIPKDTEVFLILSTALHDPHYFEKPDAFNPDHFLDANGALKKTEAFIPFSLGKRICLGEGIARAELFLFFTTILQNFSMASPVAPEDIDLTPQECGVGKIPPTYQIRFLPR

[12] = target: CYP2C9 (Homo sapiens, UniProt P11712); experiment: Inhibition of CYP2C9 (unknown origin) at 20 uM; assay type: ADME
[13] = Cytotoxicity against HEK293 cells assessed as reduction in cell viability incubated for 72 hrs by CCK-8 assay; assay type: toxicity, cell-based; conditions: human
[14] = Metabolic stability in mouse liver microsomes assessed as intrinsic clearance; assay type: ADME, Microsome; conditions: read-out: CLH
[15] = target: CYP2E1 (Homo sapiens, UniProt P05181); experiment: Inhibition of CYP2E1 (unknown origin) at 20 uM; assay type: ADME
[16] = target: T4, CYP1A2 (Homo sapiens, UniProt P05177); experiment: Inhibition of CYP1A2 (unknown origin) at 20 uM; assay type: ADME
T4 sequence (P05177 whole entry): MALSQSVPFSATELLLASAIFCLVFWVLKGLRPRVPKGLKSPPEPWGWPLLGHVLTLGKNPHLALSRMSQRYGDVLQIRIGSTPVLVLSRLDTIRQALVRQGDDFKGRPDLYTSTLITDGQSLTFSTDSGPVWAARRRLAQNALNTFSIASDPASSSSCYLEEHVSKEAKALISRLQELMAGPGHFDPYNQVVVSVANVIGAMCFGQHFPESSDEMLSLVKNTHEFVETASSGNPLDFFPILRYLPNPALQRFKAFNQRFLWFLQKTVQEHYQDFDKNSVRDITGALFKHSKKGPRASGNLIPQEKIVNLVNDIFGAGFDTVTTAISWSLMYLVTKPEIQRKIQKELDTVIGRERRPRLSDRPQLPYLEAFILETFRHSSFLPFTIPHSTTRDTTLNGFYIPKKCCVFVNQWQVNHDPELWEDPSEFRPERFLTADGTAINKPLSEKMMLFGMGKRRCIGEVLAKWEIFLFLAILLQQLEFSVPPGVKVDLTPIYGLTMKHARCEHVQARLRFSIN

[17] = Metabolic stability in mouse liver microsomes assessed as half life; assay type: ADME, Microsome
[18] = tested on: CT26; experiment: Antitumor activity against mouse CT26 cells allografted in BALB/c mouse assessed as tumor growth inhibition at 75 mg/kg, po administered once a day for 14 days; assay type: functional; conditions: CT26, 336 h, time 14 day, read-out: TGI

Prostaglandin E2 receptor EP4 subtype (Mus musculus, UniProt P32240), sequence (P32240 whole entry): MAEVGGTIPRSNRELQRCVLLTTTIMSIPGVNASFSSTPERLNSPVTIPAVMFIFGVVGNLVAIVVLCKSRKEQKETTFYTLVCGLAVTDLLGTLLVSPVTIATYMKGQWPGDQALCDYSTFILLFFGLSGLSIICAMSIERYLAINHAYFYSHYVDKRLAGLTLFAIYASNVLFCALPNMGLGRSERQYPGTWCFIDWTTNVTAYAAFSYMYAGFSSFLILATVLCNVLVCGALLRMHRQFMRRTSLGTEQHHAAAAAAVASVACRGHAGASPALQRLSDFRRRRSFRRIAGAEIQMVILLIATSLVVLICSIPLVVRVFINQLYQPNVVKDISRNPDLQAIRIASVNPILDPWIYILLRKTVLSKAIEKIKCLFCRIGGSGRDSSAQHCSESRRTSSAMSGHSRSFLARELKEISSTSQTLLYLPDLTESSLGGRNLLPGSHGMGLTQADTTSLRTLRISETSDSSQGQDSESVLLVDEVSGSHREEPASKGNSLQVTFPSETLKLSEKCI
Prostaglandin E2 receptor EP4 subtype (Homo sapiens, UniProt P35408), sequence (P35408 whole entry): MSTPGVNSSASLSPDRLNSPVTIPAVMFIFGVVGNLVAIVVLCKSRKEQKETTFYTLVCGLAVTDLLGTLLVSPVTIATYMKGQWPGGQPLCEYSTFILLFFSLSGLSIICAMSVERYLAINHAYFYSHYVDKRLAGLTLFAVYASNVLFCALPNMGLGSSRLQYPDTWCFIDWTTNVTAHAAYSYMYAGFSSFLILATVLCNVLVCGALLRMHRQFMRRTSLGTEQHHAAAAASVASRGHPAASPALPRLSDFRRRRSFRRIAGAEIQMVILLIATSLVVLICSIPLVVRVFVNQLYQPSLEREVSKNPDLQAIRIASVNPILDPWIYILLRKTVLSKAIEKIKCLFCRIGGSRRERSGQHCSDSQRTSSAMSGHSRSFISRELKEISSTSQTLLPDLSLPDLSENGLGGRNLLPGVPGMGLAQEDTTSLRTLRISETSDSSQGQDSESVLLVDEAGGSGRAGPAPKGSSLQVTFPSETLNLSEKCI
Prostaglandin E2 receptor EP2 subtype, sequence (P43116 whole entry): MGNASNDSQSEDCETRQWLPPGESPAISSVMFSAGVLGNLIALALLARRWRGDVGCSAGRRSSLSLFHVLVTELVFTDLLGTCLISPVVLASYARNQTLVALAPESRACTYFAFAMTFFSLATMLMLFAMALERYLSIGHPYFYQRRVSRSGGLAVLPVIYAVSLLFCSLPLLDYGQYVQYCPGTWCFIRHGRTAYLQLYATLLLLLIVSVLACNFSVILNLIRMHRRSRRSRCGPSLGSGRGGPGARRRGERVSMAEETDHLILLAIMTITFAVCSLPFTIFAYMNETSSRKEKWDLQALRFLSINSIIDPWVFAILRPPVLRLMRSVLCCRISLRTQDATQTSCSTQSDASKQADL
CYP2D6, sequence (P10635 whole entry): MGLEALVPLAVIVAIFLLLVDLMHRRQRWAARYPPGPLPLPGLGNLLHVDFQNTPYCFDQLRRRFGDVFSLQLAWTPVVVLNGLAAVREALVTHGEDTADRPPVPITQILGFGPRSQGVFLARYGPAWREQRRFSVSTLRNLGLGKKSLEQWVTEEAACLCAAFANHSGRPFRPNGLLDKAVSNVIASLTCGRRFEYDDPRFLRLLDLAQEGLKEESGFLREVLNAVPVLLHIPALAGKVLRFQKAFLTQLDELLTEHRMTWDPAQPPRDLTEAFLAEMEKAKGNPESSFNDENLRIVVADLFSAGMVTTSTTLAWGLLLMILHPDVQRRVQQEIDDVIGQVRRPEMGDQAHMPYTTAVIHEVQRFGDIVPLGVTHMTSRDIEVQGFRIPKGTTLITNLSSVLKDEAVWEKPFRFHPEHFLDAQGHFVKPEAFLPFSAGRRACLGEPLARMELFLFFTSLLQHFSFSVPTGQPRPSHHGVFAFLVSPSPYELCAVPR
CYP2E1, sequence (P05181 whole entry): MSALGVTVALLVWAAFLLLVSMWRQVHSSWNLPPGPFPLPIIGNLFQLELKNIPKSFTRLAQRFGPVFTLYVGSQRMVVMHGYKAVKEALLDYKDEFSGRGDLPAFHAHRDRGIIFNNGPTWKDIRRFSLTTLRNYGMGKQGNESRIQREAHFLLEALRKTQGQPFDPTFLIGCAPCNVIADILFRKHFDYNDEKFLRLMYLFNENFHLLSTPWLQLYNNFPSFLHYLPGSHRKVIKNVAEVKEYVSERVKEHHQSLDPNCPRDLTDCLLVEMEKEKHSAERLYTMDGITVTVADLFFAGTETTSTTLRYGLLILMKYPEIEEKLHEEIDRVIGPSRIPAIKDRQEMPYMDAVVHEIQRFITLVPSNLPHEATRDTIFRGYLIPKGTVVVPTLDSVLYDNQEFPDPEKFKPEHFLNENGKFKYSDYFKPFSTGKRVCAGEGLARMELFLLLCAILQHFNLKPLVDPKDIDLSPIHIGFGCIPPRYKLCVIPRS
CYP2C9, sequence (P11712 whole entry): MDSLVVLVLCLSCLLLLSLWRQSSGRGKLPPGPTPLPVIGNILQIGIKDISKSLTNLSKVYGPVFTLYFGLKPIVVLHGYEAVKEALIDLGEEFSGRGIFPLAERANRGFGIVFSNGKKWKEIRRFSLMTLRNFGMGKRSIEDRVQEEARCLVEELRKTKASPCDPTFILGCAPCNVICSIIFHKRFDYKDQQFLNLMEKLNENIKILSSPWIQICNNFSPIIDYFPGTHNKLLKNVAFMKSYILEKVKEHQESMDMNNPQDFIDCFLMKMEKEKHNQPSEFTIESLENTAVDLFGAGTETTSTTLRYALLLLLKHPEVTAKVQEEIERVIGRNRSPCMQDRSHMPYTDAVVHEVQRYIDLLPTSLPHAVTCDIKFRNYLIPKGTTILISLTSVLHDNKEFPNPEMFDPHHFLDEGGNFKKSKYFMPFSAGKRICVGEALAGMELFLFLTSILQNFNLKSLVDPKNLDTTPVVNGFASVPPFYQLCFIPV

IC50 [1]: 66.7 nM
IC50 [2]: 32.9 nM
IC50 [3]: > 10000 nM
IC50 [4]: > 10000 nM
IC50 [5]: > 10000 nM
Compound: C[C@H](NC(=O)c1c(NCc2ccc(C(F)(F)F)cc2)sc2c1CCOC2)c1ccc(C(=O)O)cc1

IC50 [2]: 27.2 nM
Compound: COc1ccc2cc(C#Cc3sc4c(c3C(=O)N[C@@H](C)c3ccc(C(=O)O)cc3)CCOC4)ccc2c1

microsomal CLint [6]: 97.6 µL/min/mg
IC50 [1]: 29 nM
IC50 [2]: 27.8 nM
half-life [7]: 0.233 h
remaining at 1 h, 10 µM [8]: 5%
Compound: C[C@H](NC(=O)c1c(CCc2ccc(F)cc2)sc2c1CCCC2)c1ccc(C(=O)O)cc1

IC50 [2]: 1.9 nM
Compound: COc1cccc(Cc2sc3c(c2C(=O)N[C@@H](C)c2ccc(C(=O)O)cc2)CCOC3)c1

IC50 [2]: 1 nM
Compound: O=C(O)c1ccc(C2(NC(=O)c3c(Cc4cccc(C(F)(F)F)c4)sc4c3CCOC4)CC2)cc1

IC50 [2]: > 1000 nM
Compound: C[C@H](NC(=O)c1c(NC(=O)c2ccc(F)cc2)sc2c1CCOC2)c1ccc(C(=O)O)cc1

IC50 [2]: 3.2 nM
Compound: C[C@H](NC(=O)c1c(Cc2cccc(Cl)c2)sc2c1CCOC2)c1ccc(C(=O)O)cc1

inhibition at 20 µM [9]: 65%
remaining at 1 h, 10 µM [10]: 95.7%
microsomal CLint [6]: < 9.6 µL/min/mg
IC50 [1]: 101 nM
inhibition at 20 µM [11]: 77%
inhibition at 20 µM [12]: 33%
half-life [7]: > 2.42 h
microsomal CLint [14]: < 9.6 µL/min/mg
inhibition at 20 µM [15]: 21%
inhibition at 20 µM [16]: 59%
remaining at 1 h, 10 µM [8]: 83.6%
half-life [17]: > 2.42 h
Compound: C[C@H](NC(=O)c1c(C(F)F)nn(C)c1Oc1cccc(C(F)(F)F)c1)c1ccc(C(=O)O)cc1 [PALUPIPRANT]
IC50 at 72 h [13]: > 100000 nM
inhibition in vivo at 75 mg/kg [18]: 39.9%

IC50 [2]: 642 nM
Compound: C[C@H](NC(=O)c1c(C#Cc2ccc(=O)[nH]c2)sc2c1CCOC2)c1ccc(C(=O)O)cc1

IC50 [2]: > 1000 nM
Compound: COC(=O)c1ccc([C@H](C)NC(=O)c2c(Cc3ccc(F)cc3)sc3c2CCOC3)cc1

IC50 [3]: > 10000 nM
IC50 [4]: > 10000 nM
IC50 [5]: > 10000 nM
Compound: COc1ccc(Cc2sc3c(c2C(=O)N[C@@H](C)c2ccc(C(=O)O)cc2)CCOC3)cc1F

IC50 [2]: > 1000 nM
Compound: O=C(O)c1cccc(CNC(=O)c2c(Cc3cccc(C(F)(F)F)c3)sc3c2CCOC3)c1

IC50 [2]: 2.1 nM
IC50 [3]: > 10000 nM
IC50 [4]: > 10000 nM
IC50 [5]: > 10000 nM
Compound: COc1ccc(Cc2sc3c(c2C(=O)N[C@@H](C)c2ccc(C(=O)O)cc2)CCOC3)cc1

IC50 [2]: 315 nM
Compound: C[C@H](NC(=O)c1c(CCc2ccc(F)cc2)sc2c1CCN(C(=O)OC(C)(C)C)C2)c1ccc(C(=O)O)cc1
